Consider one compound from US20070122483A1, “Fluocinolone acetonide drug substance polymorphic interconversion” (priority 2005, published 2007).

The conditions of data set [1]: background statement; cited from earlier work.
The nature of data set [2]: Polymorphic changes of FA after exposure to water (slurry), followed by 13C CP/MAS NMR. It is filed as physicochemical. Particulars: slurry 0.5 g FA in 10 ml water, stirred at room temperature for seven days, filtered and dried. Here is the method:
Slurries containing 0.5 g FA in 10 ml of water were covered and stirred at room temperature for seven days. To remove the water, the samples were filtered and dried overnight at room temperature.
Approximately 80-100 mg of sample was packed inside a 7 mm rotor. Magic-angle spinning (MAS) NMR spectra of fluocinolone acetonide (FA) were acquired using a Varian Unity Inova 400 operating at 399.8 and 100.5 MHz for ^1H and ^13C respectively. The spectra were acquired using cross-polarization (CP) with total sideband suppression and a spinning speed of 4 kHz. Additional acquisition and processing parameters are noted below:
All spectra were externally referenced to hexamethylbenzene (HMB) (^13C, aliphatic peak at 17.4 ppm).

As for `CC1(C)O[C@@H]2C[C@H]3[C@@H]4C[C@H](F)C5=CC(=O)C=C[C@]5(C)[C@@]4(F)[C@@H](O)C[C@]3(C)[C@]2(C(=O)CO)O1` [Fluocinolone acetonide], in data set [1], the solubility in water entry is recorded as “practically insoluble”. For the same compound, the “polymorphic changes after exposure to water for an extended time period” value in data set [2] was “all polymorphic forms interconvert to the same form”.
